SMILES strings stand for the structures. pIC50: −log10 of the molar value. Where a SMILES comes first, the peptide text is derived from it.

The source of these data is paper PMC2880318 (Immunome Research, 2010).

This experiment concerns the target purified HLA-DRB1*0101 (Homo sapiens, UniProt P01903+P01911, A100R/D57E/F55L/F60I/F76Y/I96L/L162R/M171V/P40L/Q125E/R42F/V115G/Y59C). Put plainly: biochemical. Format: binding.

As for `CC[C@H](C)[C@H](NC(=O)[C@@H]1CCCN1C(=O)[C@H](CO)NC(=O)[C@@H]1CCCN1)C(=O)NCC(=O)N[C@@H](Cc1ccc(O)cc1)C(=O)N[C@@H](CC(C)C)C(=O)NCC(=O)N[C@@H](CC(C)C)C(=O)N[C@@H](CC(C)C)C(=O)N[C@@H](CO)C(=O)N[C@@H](CCC(N)=O)C(=O)N[C@@H](CCCNC(=N)N)C(=O)N[C@H](C(=O)N[C@@H](CCCNC(=N)N)C(=O)O)[C@@H](C)O` [LASV GPC236-250], the pIC50 (as a rule, the IC50 on a negative log10 scale, so that one unit is a factor of ten) was 9.85. Compound `CC[C@H](C)[C@H](NC(=O)[C@H](Cc1ccc(O)cc1)NC(=O)[C@@H](NC(=O)[C@H](CC(=O)O)NC(=O)[C@H](CCCNC(=N)N)NC(=O)[C@@H](NC(=O)[C@H](CCCNC(=N)N)NC(=O)[C@H](CCC(N)=O)NC(=O)[C@H](CO)NC(=O)[C@H](CC(C)C)NC(=O)[C@H](CC(C)C)NC(=O)CNC(=O)[C@H](CC(C)C)NC(=O)[C@@H](N)Cc1ccc(O)cc1)[C@@H](C)O)[C@@H](C)CC)C(=O)N[C@@H](CO)C(=O)O` [LASV GPC241-255] gave a pIC50 of 9.54. With `CC(C)C[C@H](NC(=O)CNC(=O)[C@H](CS)NC(=O)[C@@H](N)CO)C(=O)N[C@@H](Cc1ccc(O)cc1)C(=O)N[C@@H](CCCCN)C(=O)N[C@@H](CCC(N)=O)C(=O)N1CCC[C@H]1C(=O)NCC(=O)N[C@H](C(=O)N1CCC[C@H]1C(=O)N[C@H](C(=O)N[C@@H](CCCNC(=N)N)C(=O)N[C@@H](Cc1c[nH]c2ccccc12)C(=O)N[C@@H](CCCCN)C(=O)O)C(C)C)C(C)C` [LASV GPC476-490] the figure was 8.82; with `CC[C@H](C)[C@H](NC(=O)[C@H](Cc1ccc(O)cc1)NC(=O)[C@H](CC(=O)O)NC(=O)[C@H](CCCCN)NC(=O)[C@H](CCCNC(=N)N)NC(=O)[C@@H](N)CC(C)C)C(=O)N[C@@H](CCCCN)C(=O)N[C@@H](CCCNC(=N)N)C(=O)N[C@@H](CCC(N)=O)C(=O)NCC(=O)N[C@@H](CO)C(=O)N[C@H](C(=O)N1CCC[C@H]1C(=O)N[C@@H](CC(C)C)C(=O)N[C@@H](C)C(=O)O)[C@@H](C)O` [LCMV GPC421-435], 8.32; with `CC[C@H](C)[C@H](NC(=O)[C@H](CC(C)C)NC(=O)CNC(=O)[C@H](CCC(=O)O)NC(=O)[C@@H]1CCCN1C(=O)[C@H](CC(N)=O)NC(=O)[C@@H](NC(=O)[C@H](CCCCN)NC(=O)[C@H](CCC(N)=O)NC(=O)[C@H](Cc1ccccc1)NC(=O)[C@H](CC(N)=O)NC(=O)[C@@H](N)CCCNC(=N)N)C(C)C)C(=O)N[C@@H](CCCCN)C(=O)N[C@@H](CCC(=O)O)C(=O)N[C@@H](Cc1ccccc1)C(=O)O` [LCMV L256-270] (H-RNFQKVNPEGLIKEF-OH), 8.25. Regarding `CC[C@H](C)[C@H](NC(=O)[C@H](CCC(=O)O)NC(=O)[C@H](CO)NC(=O)[C@H](CC(C)C)NC(=O)[C@@H](NC(=O)[C@@H](NC(=O)[C@H](CCCCN)NC(=O)[C@H](CCCNC(=N)N)NC(=O)[C@H](CC(C)C)NC(=O)[C@@H](N)Cc1c[nH]cn1)C(C)C)[C@@H](C)CC)C(=O)N[C@@H](CO)C(=O)N[C@@H](Cc1ccccc1)C(=O)N[C@@H](Cc1c[nH]cn1)C(=O)N[C@@H](CC(C)C)C(=O)N[C@H](C(=O)O)C(C)C` [LCMV L946-960] (H-HLRKVILSEISFHLV-OH), the pIC50 was 8.68. In turn, `CC(C)C[C@H](NC(=O)[C@H](CCC(=O)O)NC(=O)[C@H](CCCNC(=N)N)NC(=O)[C@H](CCCNC(=N)N)NC(=O)[C@H](CC(C)C)NC(=O)[C@H](C)NC(=O)[C@H](CCC(N)=O)NC(=O)[C@@H](NC(=O)[C@H](Cc1c[nH]c2ccccc12)NC(=O)[C@H](CCC(N)=O)NC(=O)[C@H](Cc1ccccc1)NC(=O)[C@H](CO)NC(=O)[C@H](CCCCN)NC(=O)[C@@H](NC(=O)[C@@H](N)CCC(=O)O)C(C)C)[C@@H](C)O)C(=O)O` [LCMV NP6-20] showed a pIC50 of 7.31. Compared with the last compound, the pIC50 is 1.37 log units lower. For `CC[C@H](C)[C@H](NC(=O)[C@H](CS)NC(=O)[C@H](CC(=O)O)NC(=O)[C@@H](N)CCSC)C(=O)N[C@H](C(=O)N[C@@H](Cc1ccccc1)C(=O)N[C@@H](CCC(=O)O)C(=O)N[C@@H](CO)C(=O)N[C@@H](C)C(=O)N[C@@H](CO)C(=O)N[C@@H](CCCCN)C(=O)N[C@@H](C)C(=O)N[C@@H](CCCNC(=N)N)C(=O)N[C@@H](CC(C)C)C(=O)N1CCC[C@H]1C(=O)O)[C@@H](C)CC` [LCMV NP521-535], the pIC50 was 8.36. The compound `CC[C@H](C)[C@H](NC(=O)[C@H](CC(C)C)NC(=O)[C@H](Cc1ccccc1)NC(=O)[C@@H](NC(=O)[C@H](CC(N)=O)NC(=O)[C@@H](NC(=O)CNC(=O)CNC(=O)[C@H](CCCCN)NC(=O)[C@H](CCSC)NC(=O)[C@H](Cc1ccc(O)cc1)NC(=O)[C@H](Cc1ccc(O)cc1)NC(=O)[C@H](Cc1ccccc1)NC(=O)[C@H](CO)NC(=O)[C@@H](N)CC(N)=O)C(C)C)[C@@H](C)O)C(=O)O` [MACV GPC96-110] had a negative-log IC50 (pIC50) of 9.68. This pIC50 is 1.32 log units higher than that of the compound before. Turning to `CC(C)C[C@H](NC(=O)[C@H](CO)NC(=O)[C@H](CCCNC(=N)N)NC(=O)[C@H](CCC(=O)O)NC(=O)[C@H](Cc1ccccc1)NC(=O)[C@H](CC(N)=O)NC(=O)[C@H](CC(C)C)NC(=O)[C@H](Cc1c[nH]cn1)NC(=O)[C@@H](NC(=O)[C@H](CCCCN)NC(=O)[C@@H](N)CO)[C@@H](C)O)C(=O)N[C@@H](CCCCN)C(=O)N[C@@H](C)C(=O)N[C@@H](Cc1ccccc1)C(=O)N[C@@H](Cc1ccccc1)C(=O)O` [MACV GPC251-265], the pIC50 was 8.77. In the case of `CC[C@H](C)[C@H](NC(=O)CNC(=O)[C@@H](NC(=O)[C@H](CC(C)C)NC(=O)[C@H](Cc1c[nH]cn1)NC(=O)[C@H](CC(C)C)NC(=O)[C@H](Cc1ccccc1)NC(=O)[C@H](CC(C)C)NC(=O)[C@H](CO)NC(=O)[C@H](C)N)C(C)C)C(=O)N1CCC[C@H]1C(=O)N[C@H](C(=O)N[C@@H](Cc1c[nH]cn1)C(=O)N[C@@H](CCCNC(=N)N)C(=O)N[C@@H](Cc1c[nH]cn1)C(=O)O)[C@@H](C)O` [MACV GPC446-460] it was 9.89; in that of `CC[C@H](C)[C@H](NC(=O)[C@H](CC(C)C)NC(=O)[C@H](CCCCN)NC(=O)[C@@H](NC(=O)[C@H](C)NC(=O)[C@H](CCC(=O)O)NC(=O)[C@H](CC(C)C)NC(=O)[C@@H](NC(=O)[C@H](CC(=O)O)NC(=O)[C@H](CC(C)C)NC(=O)[C@@H](NC(=O)[C@H](CCCNC(=N)N)NC(=O)[C@@H](N)CC(=O)O)C(C)C)[C@@H](C)CC)C(C)C)C(=O)N[C@@H](CCCNC(=N)N)C(=O)N[C@@H](CCCCN)C(=O)O` [MACV L391-405] (H-DRVLDILEAVKLIRK-OH), 9.32; in that of `CC[C@H](C)[C@H](NC(=O)[C@H](Cc1c[nH]cn1)NC(=O)[C@H](Cc1c[nH]cn1)NC(=O)[C@@H](NC(=O)[C@H](CCC(N)=O)NC(=O)[C@H](CC(N)=O)NC(=O)[C@H](C)NC(=O)[C@H](Cc1ccccc1)NC(=O)[C@H](C)NC(=O)[C@H](CCSC)NC(=O)[C@H](CC(C)C)NC(=O)[C@H](Cc1ccccc1)NC(=O)[C@H](Cc1ccc(O)cc1)NC(=O)[C@@H](N)CCCNC(=N)N)[C@@H](C)CC)C(=O)N[C@@H](CC(=O)O)C(=O)O` [MACV L636-650], 9.62.

As for `CC[C@H](C)[C@H](NC(=O)[C@H](CC(C)C)NC(=O)[C@H](Cc1ccc(O)cc1)NC(=O)[C@@H](N)CC(=O)O)C(=O)N[C@@H](CC(C)C)C(=O)N[C@@H](CCCCN)C(=O)N[C@@H](CC(N)=O)C(=O)N[C@@H](CC(C)C)C(=O)N[C@H](C(=O)NCC(=O)N[C@@H](CC(C)C)C(=O)N[C@H](C(=O)N[C@@H](CO)C(=O)N[C@@H](C)C(=O)NCC(=O)O)C(C)C)[C@@H](C)O` [MACV L866-880], the negative-log IC50 (pIC50) was 9.68. This pIC50 and that of the compound before are within 0.2 log units of each other.

Consider `CC[C@H](C)[C@H](NC(=O)[C@H](CC(=O)O)NC(=O)[C@H](CC(N)=O)NC(=O)[C@H](Cc1ccccc1)NC(=O)[C@@H](NC(=O)[C@H](CCCCN)NC(=O)[C@H](CCCNC(=N)N)NC(=O)[C@H](C)NC(=O)[C@H](CS)NC(=O)[C@H](CC(N)=O)NC(=O)[C@H](CCCNC(=N)N)NC(=O)[C@@H](NC(=O)[C@H](Cc1ccccc1)NC(=O)[C@H](CO)NC(=O)[C@@H](N)[C@@H](C)O)[C@@H](C)CC)C(C)C)C(=O)O` [MACV L1491-1505], for which the pIC50 was 9.96. This pIC50 lies 0.28 log units higher than the previous one.

With `CC(C)[C@H](NC(=O)[C@H](C)NC(=O)[C@H](Cc1c[nH]c2ccccc12)NC(=O)[C@H](Cc1ccccc1)NC(=O)[C@H](Cc1ccccc1)NC(=O)[C@H](CC(N)=O)NC(=O)[C@H](CCC(N)=O)NC(=O)[C@H](CC(N)=O)NC(=O)[C@@H](N)CC(N)=O)C(=O)N[C@@H](CCCCN)C(=O)N1CCC[C@H]1C(=O)N[C@@H](CCCCN)C(=O)N[C@H](C(=O)N[C@H](C(=O)N[C@@H](CCCNC(=N)N)C(=O)O)C(C)C)C(C)C` [MACV L1711-1725], the pIC50 was 8.77. On to `CC(C)C[C@H](NC(=O)CNC(=O)[C@H](CC(C)C)NC(=O)[C@H](CO)NC(=O)[C@@H](NC(=O)[C@H](CC(C)C)NC(=O)[C@H](C)NC(=O)[C@H](CCC(N)=O)NC(=O)[C@@H](NC(=O)[C@@H](NC(=O)[C@H](CO)NC(=O)[C@@H](N)CC(N)=O)C(C)C)C(C)C)[C@@H](C)O)C(=O)N[C@@H](CC(C)C)C(=O)N[C@@H](Cc1ccc(O)cc1)C(=O)N[C@H](C(=O)O)[C@@H](C)O` [MACV NP191-205], for which the pIC50 was 9.11.

Compound `CC(C)C[C@H](NC(=O)[C@H](CO)NC(=O)[C@@H]1CCCN1C(=O)[C@@H]1CCCN1C(=O)[C@H](C)NC(=O)[C@@H](NC(=O)[C@H](CCCNC(=N)N)NC(=O)[C@H](CCCNC(=N)N)NC(=O)[C@H](Cc1ccccc1)NC(=O)[C@H](CCC(=O)O)NC(=O)[C@H](C)NC(=O)[C@H](CO)NC(=O)[C@@H]1CCCN1)[C@@H](C)O)C(=O)N[C@@H](Cc1ccc(O)cc1)C(=O)NCC(=O)O` [MACV Z21-35] (H-PSAEFRRTAPPSLYG-OH) gave a pIC50 of 8.70. Against the preceding compound, the pIC50 is 0.41 log units lower. `CC[C@H](C)[C@H](NC(=O)[C@H](CC(C)C)NC(=O)[C@H](CO)NC(=O)[C@@H](N)C(C)C)C(=O)N[C@@H](C)C(=O)N[C@@H](C)C(=O)N[C@@H](CC(C)C)C(=O)N[C@@H](CCCCN)C(=O)NCC(=O)N[C@@H](CCSC)C(=O)N[C@H](C(=O)N[C@@H](CC(N)=O)C(=O)N[C@@H](CC(C)C)C(=O)N[C@@H](Cc1c[nH]c2ccccc12)C(=O)N[C@@H](CCCCN)C(=O)O)[C@@H](C)CC` [SABV GPC26-40] (H-VSLIAALKGMINLWK-OH) gave a pIC50 of 9.33.
